In data set [1] the target is GLP1R (Homo sapiens, UniProt P43220). Description: Agonist activity on GLP1R/CRE-LUC HEK293 cells (luciferase reporter, ONE-Glo). Format: cell-based. To be noted: for EC50: GLP1R/CRE-LUC HEK293 cells, 6 hours incubation, chemiluminescence signal; for activity compared with comparative example compounds PF-06882961, DB02, DB03 and DB06: from Table 1, also much higher than DB04 and DB05. As for the experimental part:
Logarithmically growing GLP1R/CRE-LUC HEK293 cells (purchased from Nanjing Cobioer) were digested, the digested cells were re-suspended in a DMEM+10% FBS culture medium, and a cell density was adjusted to be 3.5*10^5/mL. The cell solution was added into a 96-well cell culture plate by 100 µL/well, and the plate was cultured overnight in an incubator (37° C., 5% CO2).
A compound was dissolved with DMSO to prepare a storage solution at an initial concentration of 10 mM, an initial concentration of the small molecular compound was 0.2 mM, and the compound was diluted by 3 times and 10 points were diluted, while the 11th point was DMSO. Another 96-well plate was taken, added with 95 μL of cell culture solution (DMEM+10% FBS) in each well, then added with 5 μL of to-be-tested samples at different concentrations in each well, mixed evenly, and then added with 11 μL of to-be-tested samples at different concentrations in each well of the cell culture plate, and each sample had two wells. The culture plate was incubated in an incubator for 6 hours (37° C., […]). The 96-well cell culture plate was taken out, added with 100 μL of ONE-Glo™ reagent in each well, and incubated at room temperature for 10 minutes, and a chemiluminescence signal value was measured with an enzyme-labeled instrument. Data were processed and analyzed by Microsoft Excel and Graphpad Prism6 to obtain an EC50 value of the compound.

For data set [2], the target named is T1, hERG potassium channel (Homo sapiens, UniProt Q12809).
T1 construct: host or cells: HEK-293 stably expressing hERG
Description: hERG test, patch clamp on HEK-293 cells stably expressing hERG potassium channel. Format: cell-based. The settings on record: HEK-293 cell line stably expressing hERG, read-out: IC50 (μM) of inhibitory effect on hERG potassium channel current. How it is done:
Test object: influences of compounds on an hERG potassium channel current were tested by a full-automatic patch clamp method.
• (1) An HEK-293 cell line stably expressing an hERG potassium channel was adopted, and hERG potassium channel cells were purchased from Creacell Company. • (2) The HEK-293 cell line stably expressing the hERG potassium channel was cultured in a DMEM culture medium containing 10% fetal bovine serum and 0.8 mg/mL G418 at 37° C. under a carbon dioxide concentration of 5%. • (3) Cell passage: the old culture medium was removed, and the cells were washed once with PBS, then added with 1 mL of TrypLE™ Express solution, and incubated at 37° C. for about 0.5 minutes. When the cells were separated from a dish bottom, about 5 mL of complete culture medium preheated at 37° C. was added. A cell suspension was gently blown with a straw to separate the aggregated cells. The cell suspension was transferred to a sterile centrifuge tube and centrifuged at 1000 rpm for 5 minutes to collect the cells. In amplification or maintenance of culture, the cells were inoculated into a 6 cm cell culture dish, and the number of cells inoculated into each cell culture dish was 2.5×10^5 cells (final volume: 5 mL). In order to maintain an electrophysiological activity of cells, a cell density should not exceed 80%. • (4) In patch clamp detection, before the test, the cells were separated by TrypLE™ Express, and 4×10^3 cells were spread on a cover slip and cultured in a 24-well plate (final volume: 500 μL). After 18 hours, the test was carried out for detection. Data analysis:
A current after an effect of each drug concentration and a blank control current
were standardized first, and then an inhibition rate
corresponding to each drug concentration was calculated. A mean number and a standard error were calculated for each concentration, and a semi-inhibitory concentration of each compound was calculated by the following equation: […]
A dosage-dependent effect was nonlinearly fitted by the above equation, wherein C represented a concentration of a test sample, IC50 represented a semi-inhibitory concentration, and h represented a Hill coefficient. Curve fitting and IC50 calculation were completed by IGOR software.

Data set [3] has as its system hGLP1R mice. Description: Glucose tolerance test in hGLP1R mice after single oral administration. Type of data set: in vivo. The settings on record: 1 mg/kg oral once; for onset of blood glucose reduction compared with comparative example compound DB05 / blood glucose reduction effect compared with comparative example compound DB05: FIG. 1 and FIG. 2; for onset of blood glucose reduction compared with comparative example compound DB03 / blood glucose reduction effect compared with comparative example compound DB03: FIG. 3 and FIG. 4; for blood glucose reduction effect compared with PF-06882961: glucose 2 g/kg i.p. 60 minutes later; for blood glucose reduction effect compared with PF-06882961 / blood glucose reduction effect compared with comparative example compound DB05 / blood glucose reduction effect compared with comparative example compound DB03: blood glucose curves and AUC (0 to 120 minutes). As for the experimental part: Genetically engineered hGLP1R mice, male, purchased from Biocytogen Jiangsu Gene Biotechnology Co., Ltd., were fasted overnight before the glucose tolerance test (IPTGG), without water deprivation. A solvent or corresponding compound was orally administered once, a glucose solution (2 g/kg) was intraperitoneally injected 60 minutes after administration, and a blood glucose value before administration of glucose (equivalent to a blood glucose value of 0 minute) and blood glucose values 15 minutes, 30 minutes, 60 minutes and 120 minutes after administration of glucose were measured. The solvent was 5% DMSO+40% PEG400+55% physiological saline, and a dosage of the compound was 1 mg/kg (n=3).

A short description of data set [4]: Pharmacokinetic studies in SD rats. To be noted: Sprague-Dawley (SD), rat, plasma. Type of data set: in vivo.

A value given as a limit tells only on which side of the number the result lay.

T1 sequence (Q12809 whole entry): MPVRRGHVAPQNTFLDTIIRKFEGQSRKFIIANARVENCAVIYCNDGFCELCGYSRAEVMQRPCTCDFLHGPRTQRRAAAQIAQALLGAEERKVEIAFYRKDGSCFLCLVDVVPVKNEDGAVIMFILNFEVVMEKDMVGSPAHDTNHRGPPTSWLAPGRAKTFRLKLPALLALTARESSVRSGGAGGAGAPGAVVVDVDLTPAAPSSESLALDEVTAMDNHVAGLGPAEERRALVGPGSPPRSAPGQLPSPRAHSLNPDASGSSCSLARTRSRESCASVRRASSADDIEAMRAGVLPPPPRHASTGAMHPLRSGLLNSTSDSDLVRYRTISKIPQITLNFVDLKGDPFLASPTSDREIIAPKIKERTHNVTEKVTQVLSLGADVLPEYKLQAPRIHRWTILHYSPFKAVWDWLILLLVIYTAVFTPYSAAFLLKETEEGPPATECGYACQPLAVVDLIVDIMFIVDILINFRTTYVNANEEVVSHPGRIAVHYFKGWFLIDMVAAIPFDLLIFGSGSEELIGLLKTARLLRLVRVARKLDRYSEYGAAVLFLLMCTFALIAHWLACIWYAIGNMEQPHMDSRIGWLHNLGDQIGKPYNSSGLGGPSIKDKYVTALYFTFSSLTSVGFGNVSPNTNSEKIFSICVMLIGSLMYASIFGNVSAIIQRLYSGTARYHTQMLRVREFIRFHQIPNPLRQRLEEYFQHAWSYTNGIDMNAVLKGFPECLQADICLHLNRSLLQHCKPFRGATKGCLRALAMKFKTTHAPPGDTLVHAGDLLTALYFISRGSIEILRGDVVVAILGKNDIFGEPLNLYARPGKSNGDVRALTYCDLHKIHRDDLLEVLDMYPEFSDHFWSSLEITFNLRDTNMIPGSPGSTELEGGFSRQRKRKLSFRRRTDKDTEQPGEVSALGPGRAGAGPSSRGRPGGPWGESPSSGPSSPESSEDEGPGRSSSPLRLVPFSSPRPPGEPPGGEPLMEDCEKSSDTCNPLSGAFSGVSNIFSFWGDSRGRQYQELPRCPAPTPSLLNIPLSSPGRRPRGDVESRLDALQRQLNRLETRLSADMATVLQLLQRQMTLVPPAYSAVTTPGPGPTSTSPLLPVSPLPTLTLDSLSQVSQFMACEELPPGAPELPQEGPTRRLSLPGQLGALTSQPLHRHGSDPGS
Sequence of GLP1R (P43220 24-463): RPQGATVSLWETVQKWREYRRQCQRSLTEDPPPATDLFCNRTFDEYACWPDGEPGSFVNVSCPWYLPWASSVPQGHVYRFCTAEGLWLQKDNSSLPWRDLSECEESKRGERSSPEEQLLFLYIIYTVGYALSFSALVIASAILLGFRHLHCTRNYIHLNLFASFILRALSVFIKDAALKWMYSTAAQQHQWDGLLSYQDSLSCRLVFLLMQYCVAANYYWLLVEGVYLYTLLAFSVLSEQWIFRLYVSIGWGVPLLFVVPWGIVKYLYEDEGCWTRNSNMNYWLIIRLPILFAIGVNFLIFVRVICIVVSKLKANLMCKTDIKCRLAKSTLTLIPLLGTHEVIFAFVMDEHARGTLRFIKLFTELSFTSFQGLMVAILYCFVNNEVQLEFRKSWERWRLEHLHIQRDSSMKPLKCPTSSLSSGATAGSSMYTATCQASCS

In data set [1], `O=C(O)c1ccc2nc(CC3CC=C(c4cccc(OCc5ccc(Cl)c6ccoc56)n4)CC3)n(C[C@@H]3CCO3)c2c1` (stereo partly drawn) [Compound 7] registered a half-maximal effective concentration (EC50) of 20.9 nM. Besides, the IC50 in data set [2] is above 30 µM.

Consider `O=C(O)c1ccc2nc(Cc3ccc(-c4cccc(OCc5ccc(Cl)c6ccoc56)n4)cc3F)n(C[C@@H]3CCO3)c2c1` [Compound 17], for which, in data set [3], the “onset of blood glucose reduction compared with comparative example compound DB05” value is on record as “took effect more quickly”, the “onset of blood glucose reduction compared with comparative example compound DB03” value is on record as “took effect more quickly”, the “blood glucose reduction effect compared with PF-06882961” value was “significantly better” and the “blood glucose reduction effect compared with comparative example compound DB05” value is “significantly better”. The “blood glucose reduction effect compared with comparative example compound DB03” value in data set [3] is recorded as “absolutely better”. The half-inhibitory concentration (IC50) in data set [2] was above 30 µM.

Take `N#Cc1ccc(COc2cccc(-c3ccc(Cc4nc5ccc(C(=O)O)cc5n4C[C@@H]4CCO4)c(F)c3)n2)c2occc12` [Compound 19]: in data set [1], the concentration for a half-maximal effect (EC50) is 3.2 nM; the “activity compared with comparative example compounds PF-06882961, DB02, DB03 and DB06” value was “higher”. Besides, in data set [3], the “onset of blood glucose reduction compared with comparative example compound DB05” value is given as “took effect more quickly”, the “blood glucose reduction effect compared with PF-06882961” value is listed as “significantly better” and the “blood glucose reduction effect compared with comparative example compound DB05” value was “significantly better”.

With `O=C(O)c1ccc2nc(Cc3ccc(-c4cccc(OCc5ccc(Cl)c6cc(F)oc56)n4)cc3F)n(C[C@@H]3CCO3)c2c1` [Compound 21], in data set [1], the EC50 stood at 0.96 nM; the “activity compared with comparative example compounds PF-06882961, DB02, DB03 and DB06” value is listed as “higher”. Further, the “blood glucose reduction effect compared with PF-06882961” value in data set [3] is listed as “significantly better”. Besides, in data set [2], the 50% inhibitory concentration (IC50) was above 30 µM. In addition, the half-life in data set [4] was 6 to 10 h.

Take `O=C(O)c1ccc2nc(Cc3ccc(-c4cccc(OCc5ccc(Cl)c6ccoc56)n4)cc3F)n(C[C@@H]3CCO3)c2n1` [Compound 38]: in data set [1], the midpoint of the response, the EC50, lay at 7.53 nM; the “activity compared with comparative example compounds PF-06882961, DB02, DB03 and DB06” value is “higher”. Moreover, in data set [3], the “onset of blood glucose reduction compared with comparative example compound DB05” value was “took effect more quickly”, the “blood glucose reduction effect compared with PF-06882961” value is reported as “significantly better” and the “blood glucose reduction effect compared with comparative example compound DB05” value is “significantly better”.

For the compound `O=C(O)c1ccc2nc(Cc3ccc(-c4cccc(OCc5cccc6c5oc5ccccc56)n4)cc3F)n(C[C@@H]3CCO3)c2c1` [Compound 61], in data set [3], the “onset of blood glucose reduction compared with comparative example compound DB05” value is given as “took effect more quickly”, the “blood glucose reduction effect compared with PF-06882961” value is listed as “significantly better” and the “blood glucose reduction effect compared with comparative example compound DB05” value is listed as “significantly better”.

As to `O=C(O)c1ccc2nc(Cc3ccc(-c4cccc(OCc5ccc(F)c6ccoc56)n4)cc3F)n(C[C@@H]3CCO3)c2c1` [Compound 87], in data set [2], the 50% inhibitory concentration (IC50) was above 30 µM.

Take `O=C(O)c1ccc2nc(Cc3ccc(-c4ccc(F)c(OCc5ccc(Cl)c6ccoc56)n4)cc3F)n(C[C@@H]3CCO3)c2c1` [Compound 93]: in data set [1], the concentration for a half-maximal effect (EC50) came out at 2.89 nM; the “activity compared with comparative example compounds PF-06882961, DB02, DB03 and DB06” value is on record as “higher”. In data set [3], the “onset of blood glucose reduction compared with comparative example compound DB03” value is on record as “took effect more quickly”, the “blood glucose reduction effect compared with PF-06882961” value is listed as “significantly better” and the “blood glucose reduction effect compared with comparative example compound DB03” value was “absolutely better”. In addition, the IC50 in data set [2] is above 30 µM. In data set [4], this compound showed a half-life of 6 to 10 h.

Take `O=C(O)c1ccc2nc(Cc3ccc(-c4ccc(F)c(OCc5ccc(Cl)c6cc(F)oc56)n4)cc3F)n(C[C@@H]3CCO3)c2c1` [Compound 94]: in data set [1], a half-maximal effect (EC50) was put at 0.89 nM; the “activity compared with comparative example compounds PF-06882961, DB02, DB03 and DB06” value is on record as “higher”. In addition, the “blood glucose reduction effect compared with PF-06882961” value in data set [3] is reported as “significantly better”. Moreover, in data set [2], the concentration for half-maximal inhibition (IC50) was above 30 µM. Further, the half-life in data set [4] fell in the range of 6 to 10 h.

Take `O=C(O)c1ccc2nc(Cc3ccc(-c4cccc(OCc5ccc(Cl)c6cc(Cl)oc56)n4)cc3F)n(C[C@@H]3CCO3)c2c1` [Compound 99]: the “blood glucose reduction effect compared with PF-06882961” value in data set [3] is recorded as “significantly better”. Moreover, the IC50 in data set [2] is above 30 µM. In data set [4], the half-life fell in the range of 6 to 10 h.

Take `O=C(O)c1ccc2nc(Cc3ccc(-c4ccc(F)c(OCc5ccc(F)c6cc(Cl)oc56)n4)cc3F)n(C[C@@H]3CCO3)c2c1` [Compound 104]: in data set [1], the EC50 was found to be 1.76 nM; the “activity compared with comparative example compounds PF-06882961, DB02, DB03 and DB06” value was “higher”. Further, the IC50 in data set [2] was above 30 µM.

As to `O=C(O)c1ccc2nc(CC3CC=C(c4ccc(F)c(OCc5ccc(Cl)c6ccoc56)n4)CC3)n(C[C@@H]3CCO3)c2c1` (stereo partly drawn) [Compound 106], in data set [1], the EC50 was 5.87 nM; the “activity compared with comparative example compounds PF-06882961, DB02, DB03 and DB06” value was “higher”. For the same compound, in data set [3], the “blood glucose reduction effect compared with PF-06882961” value is “significantly better”.

In the case of `O=C(O)c1ccc2nc(CC3CC=C(c4ccc(F)c(OCc5ccc(Cl)c6cc(Cl)oc56)n4)CC3)n(C[C@@H]3CCO3)c2c1` (stereo partly drawn) [Compound 107], in data set [1], the EC50 is 1.9 nM; the “activity compared with comparative example compounds PF-06882961, DB02, DB03 and DB06” value was “higher”. In data set [3], the “blood glucose reduction effect compared with PF-06882961” value is given as “significantly better”.

With `O=C(O)c1ccc2nc(CC3CC=C(c4cccc(OCc5ccc(Cl)c6cc(Cl)oc56)n4)CC3)n(C[C@@H]3CCO3)c2c1` (stereo partly drawn) [Compound 108], in data set [1], the 50% effective concentration (EC50) worked out at 3.11 nM; the “activity compared with comparative example compounds PF-06882961, DB02, DB03 and DB06” value is listed as “higher”.

Turning to `O=C(O)c1ccc2nc(CN3CC=C(c4cccc(OCc5ccc(Cl)c6ccoc56)n4)CC3)n(C[C@@H]3CCO3)c2c1` [DB02, reference compound], in data set [1], the EC50 was 13.6 nM.

Consider `O=C(O)c1ccc2nc(Cc3ccc(-c4cccc(OCc5ccc(Cl)cc5F)n4)cc3F)n(C[C@@H]3CCO3)c2c1` [DB03, reference compound], for which the IC50 in data set [2] was above 10 µM. The half-life in data set [4] is 2.94 h.

Turning to `COCCn1c(Cc2ccc(-c3cccc(OCc4ccc(C#N)c5ccoc45)n3)cc2F)nc2ccc(C(=O)O)cc21` [DB04, reference compound], the midpoint of the response in data set [1], the EC50, lay at 275 nM.

The compound `COCCn1c(Cc2ccc(-c3cccc(OCc4ccc(Cl)c5ccoc45)n3)cc2F)nc2ccc(C(=O)O)cc21` [DB05, reference compound] registered a concentration giving a half-maximal response (EC50) in data set [1] of 312 nM.

For the compound `N#Cc1ccc(COc2cccc(C3CCN(Cc4nc5ccc(C(=O)O)cc5n4C[C@@H]4CCO4)CC3)n2)c(F)c1` [PF-06882961, reference compound], the IC50 in data set [2] was found to be 9.35 µM. The half-life in data set [4] was 3.13 h.

For the origin of these results see patent US20250136584A1, “Benzimidazole Or Azabenzimidazole Compound, Preparation Method Therefor And Use Thereof” (Chengdu Di'Ao Jiuhong Pharmaceutical Factory, priority 2022, published 2025).
